According to patent publication US5334595A, “Pyrazoloquinolones as anticancer agents” (priority 1992, dated 1994):

Columns and labels:
Set-up in all cases: species or system mice
[1] = test system: lung carcinoma No. 12 (LC 12); assay: In vivo antitumor assay, LC12(sc); conditions: drug iv, qd 3,5, exp 1161
Excerpt: (§1) Mice: Inbred: C3H/He and NCR-nu; and Hybrids: B6D2F1 (C57BL/6 females×DBA/2 males, CD2F1 (Balb/c females×DBS/2 males) and B6C3fl (C57BL/6×C3H) were bred at Wayne State University from strains obtained from the Frederick Cancer Research Facility, Frederick, Maryland or purchased from commercial suppliers.
(§2) Tumors: Murine Tumor: P388 and an adriamycin-resistant (ADR) subline P388/ADR leukemia and the following transplantable solid tumors of mice were used for in vivo testing: B16 melanoma (B16), pancreatic ductal adenocarcinoma No. 03 (Pane 03), colon adenocarcinoma No. 38 (colo 38), lung carcinoma No. 12 (LC 12), mammary ductal adenocarcinoma No. 16/C (Mam16C) and an adriamycin-resistant subline Mam16C/ADR. Human tumor: A single human tumor, mammary carcinoma MX-1 was used for in vivo testing. All tumors are in the Developmental Therapeutics Program frozen tumor respository, maintained by the Biological Testing Branch, Frederick Maryland. Each has a detailed description, code identification number, and list of references at the National Tumor Repository. Murine tumors were maintained in the mouse strain of origin and were transplanted in the appropriate F1 hydrid (or the strain of origin) for therapy trials. […]
(§3) Quantitative end points used to assess antitumor activity included % Increased Life Span (% ILS), Tumor Cell Kill (Log10 kill), and Tumor Growth Inhibition (T/C). […]
Tumors were measured with a caliper once or twice weekly (as needed) until either tumors exceeded 1600 mg or cure was assured. […] When the control group tumors reached approximately 750-1500 mg in size (median of group), the median tumor weight of each group was determined (including zeros). […] The % T/C was calculated from the following formula for solid murine tumor models: [formula] where T and C are median tumor weights of the treatment and control groups, respectively. […] By convention the T/C value for the mammary carcinoma MX-1 models is calculated by the parameter of change in tumor weight .

[2] = test system: P388 leukemia; assay: In vivo antitumor assay, P388(iv); conditions: drug iv, qd 1-3, exp 1155A
Excerpt: as §1, §2, §3
Endpoints were calculated as follows: [formula] where Dt is the median day of death for treated and Dc is the median day of death for control groups. […] Minimum quantitative activity limits for additional P388 models (e.g. P388/ADR and P388, IV) have not been defined. […]
(§4) The log10 cell kill was calculated from the following formula: [formula] where T-C is the tumor difference in the median day of death between the treated (T) and the control (C) groups and Td is the tumor doubling time (in days), the latter estimated from the best fit straight line from a log-linear growth plot of the control-group tumors in exponential growth. […]

[3] = In vivo antitumor assay, Mam16C/ADR; conditions: mouse, in vivo, drug iv, qd 1,3,5, exp 1120A, footnote 2: 2 lower doses equally active to modestly more active
Excerpt: as §1
as §2, with “Repository.” for “Repository. Murine tumors were maintained in the mouse strain of origin and were transplanted in the appropriate F1 hydrid (or the strain of origin) for therapy trials.”
as §3, §4
(§5) Tumors were measured with a caliper once or twice weekly (as needed) until either tumors exceeded 1600 mg or cure was assured. […] When the control group tumors reached approximately 750-1500 mg in size (median of group), the median tumor weight of each group was determined (including zeros). […] The % T/C was calculated from the following formula for solid murine tumor models: [formula] where T and C are median tumor weights of the treatment and control groups, respectively. […]

[4] = test system: adriamycin-resistant subline Mam16C/ADR; assay: In vivo antitumor assay, Mam16C/ADR; conditions: drug iv, qd 1,3,5, exp 1120A
Excerpt: as §1
as §2, with “Repository.” for “Repository. Murine tumors were maintained in the mouse strain of origin and were transplanted in the appropriate F1 hydrid (or the strain of origin) for therapy trials.”
as §3, §4, §5

[5] = In vivo antitumor assay, Mam16C(sc); conditions: mouse, in vivo, drug iv, qd 1-4, exp 1132
Excerpt: as §1
(§6) Tumors: Murine Tumor: P388 and an adriamycin-resistant (ADR) subline P388/ADR leukemia and the following transplantable solid tumors of mice were used for in vivo testing: B16 melanoma (B16), pancreatic ductal adenocarcinoma No. 03 (Pane 03), colon adenocarcinoma No. 38 (colo 38), lung carcinoma No. 12 (LC 12), mammary ductal adenocarcinoma No. 16/C (Mam16C) and an adriamycin-resistant subline Mam16C/ADR. Human tumor: A single human tumor, mammary carcinoma MX-1 was used for in vivo testing. All tumors are in the Developmental Therapeutics Program frozen tumor respository, maintained by the Biological Testing Branch, Frederick Maryland. Each has a detailed description, code identification number, and list of references at the National Tumor Repository. Murine tumors were maintained in the mouse strain of origin and were transplanted in the appropriate F1 hydrid (or the strain of origin) for therapy trials. Human mammary carcinoma MX-1 (MX1) was maintained as a subcutaneous implant in either athymic Swiss (Cr: NIH(S)-nu) or athymic random bred (NCR-nu) mice and transplanted in NCR-nu for therapy trials.
(§7) Chemotherapy: For pancreatic ductal adenocarcinoma No. 3, colon adenocarcinoma No. 38 (colo 38), lung carcinoma No. 12 LC 12) and both adriamycin-sensitive (RP) and-resistant (ADR) mammary ductal adenocarcinoma No. 16 (Mam16) tumors, bilateral tumor implants were used to help ensure a more uniform tumor burden per mouse (thus reducing the requirement for greater numbers of mice per group). The animals necessary to begin an experiment were pooled, implanted bilaterally s.c. on day zero with 30-60 mg tumor fragments using a 12-gauge trocar, and again pooled before randomization to the various treatment and control groups. Chemotherapy was started within three days after tumor implantation while the number of cells per mouse was relatively small (1×10^7 -1×10^8 cells).
(§8) Quantitative end points used to assess antitumor activity included % Increased Life Span (% ILS), Tumor Cell Kill (Log10 kill), and Tumor Growth Inhibition (T/C). Long Term Survivors (45 or 60 day) were excluded from calculations of %ILS and Tumor Cell Kill.
(§9) The log10 cell kill was calculated from the following formula: [formula] where T-C is the tumor difference in the median day of death between the treated (T) and the control (C) groups and Td is the tumor doubling time (in days), the latter estimated from the best fit straight line from a log-linear growth plot of the control-group tumors in exponential growth. The conversion of the T-C values to log10 cell kill is possible because the Td for tumors regrowing post-treatment approximated the Td values of the tumors in untreated control mice.
as §5

[6] = test system: mammary ductal adenocarcinoma No. 16/C (Mam16C); assay: In vivo antitumor assay, Mam16C(sc); conditions: drug iv
Excerpt: as §1, §6, §7, §8, §9, §5

Q: Which results are given for `Cc1cc(-c2c(F)cc3c4nn(CCN(C)C)c(=O)c-4cn(C4CC4)c3c2F)cc(C)n1.O=C(O)/C=C/C(=O)O` [Example 1, 5-Cyclopropyl-6,8-difluoro-2,5-dihydro-2-[2-(dimethylamino)-ethyl]-7-(2,6-dimethyl-4-pyridinyl)-3H-pyrazolo[4,3-c]quinolin-3-one (E)-2-butendioate (1:1)]?
A: Log Kill [1]: 0.76; T/C % [1]: 25%; ILS % [2]: 82%; Log Kill [2]: 5.4; MTD [3]: 58 mg/kg; Log Kill [4]: 0.50; T/C % [4]: 26%; MTD [5]: 43 mg/kg; Log Kill ([6]; qd 1,3,5, exp 1142A): 1.9; T/C % ([6]; qd 1,3,5, exp 1142A): 18%; Log Kill ([6]; qd 1-4, exp 1132): 1.3; T/C % ([6]; qd 1-4, exp 1132): 7%
